The test addresses T1, human TLR7 (Homo sapiens, UniProt Q9NYK1).
T1 sequence (Q9NYK1 27-1049): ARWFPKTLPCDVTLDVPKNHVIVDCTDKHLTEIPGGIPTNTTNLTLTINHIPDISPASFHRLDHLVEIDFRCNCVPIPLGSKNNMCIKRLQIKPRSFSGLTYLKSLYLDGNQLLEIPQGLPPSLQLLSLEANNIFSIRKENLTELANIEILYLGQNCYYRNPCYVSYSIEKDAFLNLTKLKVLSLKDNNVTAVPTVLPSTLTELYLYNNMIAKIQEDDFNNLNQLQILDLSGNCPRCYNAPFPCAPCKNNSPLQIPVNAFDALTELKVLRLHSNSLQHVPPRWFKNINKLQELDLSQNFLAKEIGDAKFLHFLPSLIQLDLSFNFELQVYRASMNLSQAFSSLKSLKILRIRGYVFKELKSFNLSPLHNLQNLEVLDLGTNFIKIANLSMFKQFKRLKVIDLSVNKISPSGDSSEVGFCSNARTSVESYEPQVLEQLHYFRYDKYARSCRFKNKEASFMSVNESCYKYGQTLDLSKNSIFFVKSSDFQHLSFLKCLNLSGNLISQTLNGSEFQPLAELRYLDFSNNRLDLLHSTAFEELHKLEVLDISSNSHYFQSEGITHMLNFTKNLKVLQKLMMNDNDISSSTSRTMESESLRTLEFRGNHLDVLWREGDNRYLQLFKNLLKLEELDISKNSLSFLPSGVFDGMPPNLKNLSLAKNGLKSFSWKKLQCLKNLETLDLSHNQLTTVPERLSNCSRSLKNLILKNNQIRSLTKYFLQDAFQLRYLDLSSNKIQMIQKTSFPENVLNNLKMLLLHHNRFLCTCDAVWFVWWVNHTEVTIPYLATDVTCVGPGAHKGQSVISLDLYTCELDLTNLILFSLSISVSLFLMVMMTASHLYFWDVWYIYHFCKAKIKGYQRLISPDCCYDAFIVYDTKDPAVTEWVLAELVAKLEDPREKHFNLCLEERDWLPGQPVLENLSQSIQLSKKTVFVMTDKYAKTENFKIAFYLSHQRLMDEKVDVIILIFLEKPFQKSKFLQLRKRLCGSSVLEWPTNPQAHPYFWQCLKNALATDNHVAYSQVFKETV
The test can be described thus: HEK293-Blue-hTLR-7 cells assay (SEAP reporter). It counts as cell-based. The conditions noted are these: for Ratio (EC50(prodrug)/EC50(active form)): EC50 of prodrug over EC50 of corresponding active form; for EC50: HEK293-Blue-hTLR-7 cells, SEAP reporter, 20 hrs, prodrug, read-out: HEK293-hTLR-7 EC50 (Prodrug). In a few lines: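 HEK293-Blue-hTLR7 cells with NF-κB/AP-1-driven SEAP reporter exposed to serially diluted compound (1% DMSO) for 20 hrs at 37° C. Supernatant SEAP measured with QUANTI-Blue after 2 hrs at 37° C, absorbance 620~655 nm; agonism expressed as EC50.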

Data on four compounds can be found in patent US10233184B2, “7-substituted sulfonimidoylpurinone compounds and derivatives for the treatment and prophylaxis of virus infection” (Hoffmann-La Roche Inc., priority 2016, dated 2019).

For `CCCN(C)C(=O)n1c(=O)n(Cc2ccc(Cl)cc2)c2nc([S@](=N)(=O)CC)nc(N)c21` [Example 41-A, 6-Amino-9-[(4-chlorophenyl)methyl]-2-[S(R)-ethylsulfonimidoyl]-N-methyl-8-oxo-N-propyl-purine-7-carboxamide], the “Ratio (EC50(prodrug)/EC50(active form))” value is on record as 518.8 and the EC50 (as a rule, the concentration giving half of the maximal effect) is 44.1 µM.

On to `CCCN(C)C(=O)n1c(=O)n(Cc2ccc(Cl)cc2)c2nc([S@@](=N)(=O)CC)nc(N)c21` [Example 41-B, 6-Amino-9-[(4-chlorophenyl)methyl]-2-[S(S)-ethylsulfonimidoyl]-N-methyl-8-oxo-N-propyl-purine-7-carboxamide], for which the “Ratio (EC50(prodrug)/EC50(active form))” value turned out to be 452.1 and the EC50 was 32.1 µM.

For the compound `CCN(C)C(=O)n1c(=O)n(Cc2ccc(Cl)cc2)c2nc([S@@](=N)(=O)CC)nc(N)c21` [Example 42-A, 6-Amino-9-[(4-chlorophenyl)methyl]-N-ethyl-2[S(S)-ethylsulfonimidoyl]-N-methyl-8-oxo-purine-7-carboxamide], the “Ratio (EC50(prodrug)/EC50(active form))” value was 570.4 and the half-maximal effective concentration (EC50) was found to be 40.5 µM.

As for `CCCN(C)C(=O)n1c(=O)n(Cc2ccc(C)cc2)c2nc([S@](=N)(=O)CC)nc(N)c21` [Example 43-A, 6-Amino-2-[S(R)-ethylsulfonimidoyl]-N-methyl-8-oxo-N-propyl-9-(p-tolylmethyl)purine-7-carboxamide], the “Ratio (EC50(prodrug)/EC50(active form))” value was 1000 and the concentration giving a half-maximal response (EC50) worked out at 110 µM.
